Results taken from patent US6573271B2, “Method of preventing proliferation of retinal pigment epithelium by retinoic acid receptor agonists” (John Hopkins University School of Medicine, priority 1995, dated 2003).

What was measured:
RPE cells = experiment: RPE cell morphology after 10 days in retinoid; type: cell-based, human; settings: 1 μm, 5% serum, on plastic
[1] = tested on: traction retinal detachment in rabbits; experiment: Traction retinal detachment in rabbits after human RPE cells, intravitreal injection of 168 and 299; type: in vivo, rabbit
[2] = tested on: traction retinal detachment in rabbits; experiment: Traction retinal detachment in rabbits after human dermal fibroblasts, intravitreous lipid microvesicles
Description: In this experiment the retinoid was incorporated into lipid microvesicles utilizing standard techniques.

[3] = tested on: traction retinal detachment in rabbits; experiment: Traction retinal detachment in rabbits after human dermal fibroblasts, subconjunctival lipid microvesicles; type: in vivo, rabbit; settings: human dermal fibroblasts
rabbit model of PVR [4] = settings: about 100 μg in biodegradable microspheres, vitreous cavity; cited from earlier work
[5] = tested on: traction retinal detachment in rabbits; experiment: Traction retinal detachment in rabbits after human RPE cells, subconjunctival injection; type: in vivo, rabbit; settings: subconjunctival 0.3 mg once a day for five days
Description: Due to the toxicity of certain RAR agonists and because the effects of retinoids are delayed in onset and reversible, methods for sustained release of the retinoids were investigated. […] The therapeutic effect of the RAR specific agonists was greater than that of RA, which is an agonist for both RXRs and RARs. There were no signs of any toxicity to the retina.

rabbit model of PVR [6] = settings: 2 to 20 μg/ml SiO, 8 weeks; untreated controls 100%; cited from earlier work
[7] = tested on: rabbit cell injection model of PVR; experiment: Rabbit cell injection model of PVR (RPE cells), intravitreous injection of retinoids; type: in vivo; settings: for Any RD (%) / Total RD (%): 28 Days; for frequency and severity of traction retinal detachments versus vehicle: initial group, intravitreous injections of 100 μg; for frequency and severity of retinal detachments versus control: single intravitreous injection one day after RPE cell injection
Experimental: Briefly, pigmented rabbits were anesthetized with a subcutaneous injection of 5 mg/kg of xylazine and 25 mg/kg of ketamine, and the pupil of one eye was dilated with 2½% phenylephrine. Under direct observation 5×10^5 RPE cells were injected into the vitreous cavity just anterior to the optic nerve. […] .
Rabbits were examined by indirect ophthalmoscopy on days 7, 14 and 28 and traction retinal detachments were graded. […] . The localized clouds decreased in size and cleared over 2 to 3 weeks. There were no visible changes in the retina. […] .
It was felt that the hair loss and possibly the loss of appetite and death were due to systemic toxicity from drug that had gotten out of the eye. […] . None of the rabbits experienced hair loss and none died; their appetites appeared to be normal.

human RPE cells = experiment: [3H]thymidine incorporation / proliferation of cultured human RPE cells; settings: for inhibition at 0.05 µM / inhibition at 0.1 µM / inhibition at 1 µM: Homo sapiens, RPE, read-out: Percent Inhibition of [3H]thymidine incorporation in RPE cells
Description: Primary cultures of human retinal pigment epithelium (RPE) cells were established from eyes obtained from the Old Dominion Eye Bank (Richmond, Va.) or the Eye Bank of Maryland (Baltimore, Md.) using the technique described in P. A. Campochiaro, et al., Invest.
For [3H]thymidine incorporation, RPE cells at passage 3 or 4 were lightly trypsinized and plated in 16-mm wells of 24-well plates. The transfected cells were allowed to attach overnight and then the media containing 5% fetal bovine serum (FBS) were supplemented with retinoids or vehicle alone. Stock solutions (10^−3M) of retinoids were prepared in dimethylsulfoxide (DMSO) and stored as frozen aliquots until used; the highest final concentration of DMSO was 0.1% and was also used for control cultures. The media containing freshly prepared retinoids were changed every three days. At 7 or 10 days 2 μCi/ml of [^3H]thymidine (specific activity, 6.7 Ci/mM; New England Nuclear, Boston, Mass.) was added to the cultures and incorporation was measured as previously described (Leschey, supra).
The potency of retinoid agonists for inhibition of serum stimulated DNA synthesis in human RPE cells was tested. […] The cells were shifted to serum-free media containing the same concentration of retinoid and then pulsed with 10% serum for 18 hours, after which [^3H]thymidine incorporation was measured. Thymidine incorporation for cells grown in control medium was used to calculate the percent inhibition of thymidine incorporation induced by four concentrations of each retinoid (each concentration tested in triplicate) which were then used to generate each line.

[8] = tested on: traction retinal detachment in rabbits; experiment: Traction retinal detachment in rabbits after human dermal fibroblasts, subconjunctival injection
RXRα = target: T1, RXRα (Homo sapiens, UniProt P19793); experiment: Transactivation, ER/RXR-α hybrid receptor + ERE-CAT reporter cotransfected in HeLa cells
T1 sequence (P19793 227-458 limits assumed): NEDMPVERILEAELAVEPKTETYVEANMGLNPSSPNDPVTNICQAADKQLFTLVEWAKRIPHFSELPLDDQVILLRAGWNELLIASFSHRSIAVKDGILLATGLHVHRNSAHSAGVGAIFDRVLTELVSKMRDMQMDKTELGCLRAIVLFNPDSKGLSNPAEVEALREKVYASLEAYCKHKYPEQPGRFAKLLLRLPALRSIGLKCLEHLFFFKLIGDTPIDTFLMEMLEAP

retinas of the rabbits = experiment: Ocular toxicity after single intravitreous injection, histopathology of retina; type: in vivo, rabbit; settings: single intravitreous injection of 100 μg, two weeks after injection
Description: The rabbits were killed two weeks after injection.

[9] = 50 μg, single intravitreous injection
[10] = 100 μg intravitreous, two injections (day 1 and day 2 after cell injection)
[11] = 100 μg intravitreous, two injections
[12] = 100 μg, single intravitreous injection

Compound: CC1=C(/C=C/C(C)=C/C=C/C(C)=C/C(=O)O)C(C)(C)CCC1 [All trans RA, all-trans retinoic acid, reference compound]
- RPE cell morphology / cell overgrowth (RPE cells): did not exhibit cell overgrowth
- % Any RD [1]: 100%
- % Total RD [1]: 0%
- RD at 7 Days, Partial [1]: 0
- RD at 7 Days, Total [1]: 0
- RD at 14 Days, Partial [1]: 0
- RD at 14 Days, Total [1]: 0
- RD at 28 Days, Partial [1]: 2
- RD at 28 Days, Total [1]: 0
- prevention of traction retinal detachment [2]: not effective
- % Any RD ([2]; human dermal fibroblasts): 67%
- % Total RD ([2]; human dermal fibroblasts): 67%
- RD at 7 Days, Partial ([2]; human dermal fibroblasts): 1
- RD at 7 Days, Total ([2]; human dermal fibroblasts): 0
- RD at 14 Days, Partial ([2]; human dermal fibroblasts): 1
- RD at 14 Days, Total ([2]; human dermal fibroblasts): 1
- RD at 28 Days, Partial ([2]; human dermal fibroblasts): 0
- RD at 28 Days, Total ([2]; human dermal fibroblasts): 4
- % Any RD [3]: 63%
- % Total RD [3]: 13%
- RD at 7 Days, Partial [3]: 0
- RD at 7 Days, Total [3]: 0
- RD at 14 Days, Partial [3]: 0
- RD at 14 Days, Total [3]: 1
- RD at 28 Days, Partial [3]: 4
- RD at 28 Days, Total [3]: 1
- tractional retinal detachment (TRD) (rabbit model of PVR [4]): significantly decreased tractional retinal detachment
- % Any RD [5]: 0%
- % Total RD [5]: 0%
- RD at 7 Days, Partial [5]: 0
- RD at 7 Days, Total [5]: 0
- RD at 14 Days, Partial [5]: 0
- RD at 14 Days, Total [5]: 0
- RD at 28 Days, Partial [5]: 0
- RD at 28 Days, Total [5]: 0
- rate of retinal detachment (rabbit model of PVR [6]): 44.5%
- Partial RD at 14 Days (number of eyes) [7, 9]: 0
- Partial RD at 28 Days (number of eyes) [7, 9]: 0
- Total RD at 14 Days (number of eyes) [7, 9]: 4
- Total RD at 28 Days (number of eyes) [7, 9]: 4
- Any RD (%) [7, 9]: 66.7%
- Total RD (%) [7, 9]: 66.7%
- Partial RD at 14 Days (number of eyes) [7, 10]: 2
- Partial RD at 28 Days (number of eyes) [7, 10]: 4
- Total RD at 14 Days (number of eyes) [7, 10]: 0
- Total RD at 28 Days (number of eyes) [7, 10]: 0
- Any RD (%) [7, 11]: 44.4+ %
- Total RD (%) [7, 11]: 0%
- Partial RD at 14 Days (number of eyes) [7, 12]: 1
- Partial RD at 28 Days (number of eyes) [7, 12]: 1
- Total RD at 14 Days (number of eyes) [7, 12]: 0
- Total RD at 28 Days (number of eyes) [7, 12]: 1
- Any RD (%) [7, 12]: 28.6+ %
- Total RD (%) [7, 12]: 14.3%
- frequency and severity of traction retinal detachments versus vehicle [7]: fewer (p(0.05) and less severe traction retinal detachments
- frequency and severity of retinal detachments versus control [7]: fewer (p(0.05) and less severe retinal detachments
- inhibition at 0.05 µM (human RPE cells): 52.6%
- inhibition at 0.1 µM (human RPE cells): 78.3%
- inhibition at 1 µM (human RPE cells): 99.4%
- inhibition of [3H]thymidine incorporation in RPE cells (human RPE cells; incubation for 7 days, FIG. 1): dose-dependent inhibition
- % Any RD [8]: 50%
- % Total RD [8]: 0%
- RD at 7 Days, Partial [8]: 0
- RD at 7 Days, Total [8]: 0
- RD at 14 Days, Partial [8]: 0
- RD at 14 Days, Total [8]: 0
- RD at 28 Days, Partial [8]: 5
- RD at 28 Days, Total [8]: 0
- effect on retinal detachments [8]: decreased the number of retinal detachments and slowed the rate at which they developed

Compound: C/C(=C\c1ccc(C(=O)O)cc1)c1ccc2c(c1)C(C)(C)CCC2(C)C [Compound 183, p-[(E)-2-(5,6,7,8-tetrahydro-5,5,8,8-tetramethyl-2-naphthyl)propenyl]-benzoic acid]
- RPE cell morphology / cell overgrowth (RPE cells): prevented cell overgrowth
- EC50 (RXRα): 15 µM
- photoreceptor degeneration, histopathology (retinas of the rabbits): Occasional focal areas of photoreceptor degeneration were seen in one eye
- Partial RD at 14 Days (number of eyes) [7, 9]: 1
- Partial RD at 28 Days (number of eyes) [7, 9]: 1
- Total RD at 14 Days (number of eyes) [7, 9]: 2
- Total RD at 28 Days (number of eyes) [7, 9]: 2
- Any RD (%) [7, 9]: 33+ %
- Total RD (%) [7, 9]: 22%
- Partial RD at 14 Days (number of eyes) [7, 10]: 0
- Partial RD at 28 Days (number of eyes) [7, 10]: 0
- Total RD at 14 Days (number of eyes) [7, 10]: 0
- Total RD at 28 Days (number of eyes) [7, 10]: 0
- Any RD (%) [7, 11]: 0++ %
- Total RD (%) [7, 11]: 0%
- frequency and severity of traction retinal detachments versus vehicle [7]: None of these rabbits developed retinal detachments
- frequency and severity of retinal detachments versus control [7]: fewer (p(0.05) and less severe retinal detachments
- deaths before completion of the 28 day observation period ([7]; two intravitreous injections of 100 μg, five rabbits): two rabbits died
- inhibition at 0.05 µM (human RPE cells): 76.7%
- inhibition at 0.1 µM (human RPE cells): 98.6%
- inhibition at 1 µM (human RPE cells): 98.8%
- inhibition of RPE cell proliferation (human RPE cells; comment on Table 3): effective inhibitors of RPE cell proliferation
